Laboratory results published in publication PMC10138577, “Prenylated Flavonoids with Selective Toxicity against Human Cancers” (International Journal of Molecular Sciences, 2023).

Experiments:
[1] = system: Du145 human prostate carcinoma cells; assay: In vitro antiproliferative assay (SRB), Du145; format: cell-based; settings: for IC50: Homo sapiens, DU-145, Du145, 72 h exposure, SRB, mean ± SD; for Calculated selectivity index SIB: IC50 BALB/3T3/IC50 Du145; for Calculated selectivity index SIA: IC50 HLMEC/IC50 Du145
Text: (§1) The following established in vitro cell lines were applied: human breast adenocarcinoma (MCF-7 and SK-BR-3), human breast ductal carcinoma (T47D), human prostate adenocarcinoma (PC-3), human prostate carcinoma (Du145), human colorectal adenocarcinoma (HT-29 and LoVo), doxorubicin-resistant human colorectal adenocarcinoma (LoVo/Dx), human myelomonocytic leukemia (MV-4-11), human lung adenocarcinoma (A549), normal murine embryonic fibroblasts (BALB/3T3) and human lung microvascular endothelial (HLMEC). All the cell lines were obtained from the American Type Culture Collection (Rockville, MD, USA) except for LoVo and LoVo/DX, which were received from the Technical University of Gdańsk, Poland, courtesy of Prof. E. Borowski. All the cell lines were maintained in the Institute of Immunology and Experimental Therapy, Wroclaw, Poland. The cells were cultured in the following media: DMEM medium (BALB/3T3), Eagle medium (MCF-7, SK-BR-3, Du145), RPMI medium (HLMEC, MV-4-11) or RPMI 1640 + Opti-MEM (1:1) medium (A549, T47D, LoVo, LoVo/Dx, PC-3, HT-29). The DMEM medium was supplemented with 2 mM L-glutamine and 10% fetal bovine serum. The Eagle medium was supplemented with 4 mM L-glutamine, 10% fetal bovine serum, 1 mM sodium pyruvate for Du145 cells or 2 mM L-glutamine, 1% amino acids and 0.8 mg L^−1 of insulin for MCF-7 and SK-BR-3. The RPMI medium was supplemented with 2 mM L-glutamine, 1 mM sodium pyruvate and 10% fetal bovine serum. The RPMI 1640 + Opti-MEM (1:1) medium was supplemented with 2 mM L-glutamine, 5% fetal bovine serum (PC-3, A549) and 0.8 mg L^−1 insulin (T47D) or 1 mM sodium pyruvate (HT-29, LoVo, LoVoDx) and 0.1 ug/mL doxorubicin (LoVo/Dx). The media contained antibiotics: 100 µg mL^−1 streptomycin and 100 U mL^−1 penicillin. All the cell lines were incubated at 37 °C in a humid atmosphere saturated with 5% CO2.
The details of this technique were described by Skehan et al.. After 72 h of incubation with the tested compounds, the cells were fixed in situ by gently adding cold 50% trichloroacetic acid—TCA (50 µL per well). The plates were incubated at 4 °C for 1 h and then washed five times with tap water and air-dried. Next, the cellular material fixed with TCA was stained by adding 50 µL of 0.4% sulforhodamine B dissolved in 1% acetic acid to each well and incubating the wells for 30 min at room temperature. The unbound dye was removed by washing the plates five times with 1% acetic acid, whereas the stain bound to the cells was extracted with 150 µL of 10 mM unbuffered Tris base for determination of the optical density at a 540 nm wavelength in a computer-interfaced, 96-well microtiter plate reader–Multiskan FC photometer (Thermo Scientific, Waltham, MA, USA). The background optical density was measured in the wells filled with culture medium, without the cells.
Twenty-four hours before incubation with the tested compounds, the cells were seeded in 96-well plates (Sarstedt, Nümbrecht, Germany) at a density of 10^4 cells per well (10^3 cells per well for HLMEC) in 100 µL of culture medium. The analysis of the antiproliferative activity of the compounds was performed using sulforhothamine B (SRB) (for all the adherent cells) or 3-(4,5-dimethylthiazol-2-yl)-2,5-diphenyl tetrazolium bromide (MTT) (for the leukemia cells—MV-4-11). The details of this technique have been previously described by Skehan et al. and Antoszak et al.. An assay was performed after 72 h of exposure at varying concentrations (from 0.1 to 100 µg mL^−1) of xanthohumol (1), aurone (2) and the reference drug cisplatin. Each compound at each concentration was tested in a single experiment, which was repeated at least 3 times. […] The results were calculated as the IC50 (μM) (half maximal inhibitory concentration), i.e., the concentration of the tested agent that inhibits the proliferation of the cancer cell population by half. […]

[2] = system: MV-4-11 human myelomonocytic leukemia cells; assay: In vitro antiproliferative assay (MTT), MV-4-11; format: cell-based; settings: for IC50: Homo sapiens, MV4-11, MV-4-11, 72 h exposure, MTT, mean ± SD; for Calculated selectivity index SIB: IC50 BALB/3T3/IC50 MV-4-11; for Calculated selectivity index SIA: IC50 HLMEC/IC50 MV-4-11
Text: as §1
The details of this technique were described by Antoszczak et al.. The proliferation inhibition of human myelomonocytic leukemia (MV-4-11) by the tested compounds was measured using the MTT assay. Thus, 20 µL of 3-(4,5-dimethylthiazol-2-yl)-2,5-diphenyl tetrazolium bromide solution was added to each well. Then, the plates were incubated for 4 h in a cell incubator to allow the cells to metabolize the yellow MTT to blue formazan. Next, 80 µL of lysing mixture (consisting of 67.5 g sodium dodecyl sulfate, 225 mL dimethylformamide and 275 mL distilled water) was added to each well. The plates were incubated for 24 h for the formazan crystals to be released from the cells and dissolved, and then the absorbance of each well was read on a 96-well microtiter plate reader (Multiskan FC photometer (Thermo Scientific)) at a 570 nm wavelength.
Twenty-four hours before incubation with the tested compounds, the cells were seeded in 96-well plates (Sarstedt, Nümbrecht, Germany) at a density of 10^4 cells per well (10^3 cells per well for HLMEC) in 100 µL of culture medium. The analysis of the antiproliferative activity of the compounds was performed using sulforhothamine B (SRB) (for all the adherent cells) or 3-(4,5-dimethylthiazol-2-yl)-2,5-diphenyl tetrazolium bromide (MTT) (for the leukemia cells—MV-4-11). The details of this technique have been previously described by Skehan et al. and Antoszak et al.. An assay was performed after 72 h of exposure at varying concentrations (from 0.1 to 100 µg mL^−1) of xanthohumol (1), aurone (2) and the reference drug cisplatin. Each compound at each concentration was tested in a single experiment, which was repeated at least 3 times. […] The results were calculated as the IC50 (μM) (half maximal inhibitory concentration), i.e., the concentration of the tested agent that inhibits the proliferation of the cancer cell population by half. The IC50 values and the mean values ± SD calculated for each experiment separately using GraphPad Prism software (GraphPad Software 9.1.0, San Diego, CA, USA) are presented in Table S1 in the Supplementary Materials.

Row | Compound | IC50 [1] [µM] | Calculated selectivity index SIB [1] | Calculated selectivity index SIA [1] | IC50 [2] [µM] | Calculated selectivity index SIB [2] | Calculated selectivity index SIA [2]
1 | COc1cc(O)c(CC=C(C)C)c(O)c1C(=O)/C=C/c1ccc(O)cc1 [compound 1, 3′-[3″,3″-dimethylallyl]-2′,4′,4-trihydroxy-6′-methoxychalcone] | 10.3 ± 0.42 | 1.90 | 3.51 | 8.07 ± 0.52 | 2.43 | 4.50
2 | COc1cc(O)c(CC=C(C)C)c2c1C(=O)/C(=C/c1ccc(O)cc1)O2 [compound 2, (Z)-6,4′-dihydroxy-4-methoxy-7-prenylaurone] | 14.7 ± 4.42 | 3.02 | 3.59 | 7.45 ± 0.87 | 5.97 | 7.09
